Results from ChEMBL document CHEMBL1154323, “Bioactive scalaranes from the Thai sponge Hyrtios gumminae” (J Nat Prod, 2009).
Activity calls are given as the source filed them. The rule behind the calls is not given here.

Legend:
Format in all cases: functional, cell-based
HuCC-A1 = test: Cytotoxicity against human HuCCa1 cells at >100 uM
KB [1] = test: Cytotoxicity against human KB cells >100 uM
HeLa [2] = test: Cytotoxicity against human HeLa cells >100 uM
MDA-MB-231 [3] = test: Cytotoxicity against human MDA-MB-231 cells >100 uM
T47D [4] = test: Cytotoxicity against human T47D cells >100 uM
NCI-H69 [5] = test: Cytotoxicity against human adriamycin resistant H69 cells >100 uM
[6] = Cytotoxicity against human HuCCa1 cells; details: HuCC-A1
KB [7] = test: Cytotoxicity against human KB cells
HeLa [8] = test: Cytotoxicity against human HeLa cells
MDA-MB-231 [9] = test: Cytotoxicity against human MDA-MB-231 cells
T47D [10] = test: Cytotoxicity against human T47D cells
NCI-H69 [11] = test: Cytotoxicity against human adriamycin resistant H69 cells

Structure (SMILES)	Activity (HuCC-A1)	Activity (KB [1])	Activity (HeLa [2])	Activity (MDA-MB-231 [3])	Activity (T47D [4])	Activity (NCI-H69 [5])	IC50 [6] [µM]	IC50 (KB [7]) [µM]	IC50 (HeLa [8]) [µM]	IC50 (MDA-MB-231 [9]) [µM]	IC50 (T47D [10]) [µM]	IC50 (NCI-H69 [11]) [µM]
CC1(C)CCC[C@]2(C)[C@H]3C[C@@H](O)[C@]4(C)C5=C(CC[C@H]4[C@]3(C)CC[C@@H]12)COC5=O	inactive	inactive	inactive	inactive	inactive	inactive	–	–	–	–	–	–
COc1cc([C@@H]2c3cc4c(cc3[C@@H](O[C@@H]3O[C@@H]5CO[C@@H](C)O[C@H]5[C@H](O)[C@H]3O)[C@H]3COC(=O)[C@H]23)OCO4)cc(OC)c1O [ETOPOSIDE]	–	–	–	–	–	–	5.1	0.5	0.4	0.3	0.1	46
CC(=O)O[C@H]1C[C@H]2[C@]3(C)CC[C@H]4C(C)(C)CCC[C@]4(C)[C@H]3C[C@@H](O)[C@]2(C)c2cocc21 [SCALARAFURAN]	–	–	–	–	–	–	49	58	63	14	28	51
CC(C)CCC[C@@H](C)[C@H]1CC[C@H]2[C@@H]3CC=C4C[C@@H](O)CC[C@]4(C)[C@H]3CC[C@]12C	inactive	inactive	inactive	inactive	inactive	inactive	–	–	–	–	–	–
CC1(C)CCC[C@]2(C)[C@H]3C[C@](C)(C=O)[C@@H](C[C@H](O)c4ccoc4)[C@]3(C)CC[C@@H]12 [HYRTIOSAL]	–	–	–	–	–	–	9.1	7.8	18	5.4	9.1	31
CC1(C)CCC[C@]2(C)[C@H]3C[C@@H](O)[C@]4(C)C5=C(C(=O)O[C@H]5O)[C@H](O)C[C@H]4[C@]3(C)CC[C@@H]12 [HYRTIOLIDE]	–	–	–	–	–	–	57	12	22	26	34	–
CC1(C)CCC[C@]2(C)[C@H]3C[C@@H](O)[C@]4(C)[C@H]5COC(=O)C5=CC[C@H]4[C@]3(C)CC[C@@H]12	–	–	–	–	–	–	42	7	23	5.9	5.2	57
CO[C@@H]1c2occc2[C@@H](O)C[C@H]2[C@]3(C)CC[C@H]4C(C)(C)CCC[C@]4(C)[C@H]3C[C@@]21C [SIMILAN A]	–	–	–	–	–	–	90	75	125	58	70	> 125
